Test results as given in ChEMBL document CHEMBL5321213, “Nicolaioidesin C: An Antiausterity Agent Shows Promising Antitumor Activity in a Pancreatic Cancer Xenograft Mouse Model” (J Nat Prod, 2023).
Activity calls are given as the source filed them. No cut-off for these calls is given here.

Legend:
MIA PaCa-2 [1] = test: Antitumor activity against human MIA PaCa-2 cells xenografted in athymic BALB/c-nu mouse assessed as fold change in D-glucosamine 6-phosphate level in tumor at 10 mg/kg/day, ip administered five times per week for 4 weeks by LC-MS analysis; format: functional
MIA PaCa-2 [2] = test: Antitumor activity against human MIA PaCa-2 cells xenografted in athymic BALB/c-nu mouse assessed as fold change in lysine level in tumor at 10 mg/kg/day, ip administered five times per week for 4 weeks by LC-MS analysis; format: functional
MIA PaCa-2 [3] = test: Antitumor activity against human MIA PaCa-2 cells xenografted in athymic BALB/c-nu mouse assessed as fold change in valine level in tumor at 10 mg/kg/day, ip administered five times per week for 4 weeks by LC-MS analysis; format: functional
MIA PaCa-2 [4] = test: Antitumor activity against human MIA PaCa-2 cells xenografted in athymic BALB/c-nu mouse assessed as fold change in phenyl alanine level in tumor at 10 mg/kg/day, ip administered five times per week for 4 weeks by LC-MS analysis; format: functional
PANC-1 [5] = test: Preferential cytotoxicity against human PANC-1 cells in nutrient-deprived medium assessed as alteration in cell morphology by measuring cell rounding at 5 uM measured after 24 hrs by acridine orange and ethidium bromide dual fluorescent staining based imaging analysis; format: functional
PANC-1 [6] = test: Inhibition of autophagy in human PANC-1 cells in nutrient-deprived medium assessed as downregulation of LC3-I protein expression measured after 6 hrs by Western blot analysis; format: functional, cell-based; settings: dose 5-20 µM
MIA PaCa-2 [7] = test: Inhibition of Akt/mTOR signaling pathway in human MIA PaCa-2 cells in nutrient-deprived medium assessed as reduction in mTOR phosphorylation at S2481 residue measured after 6 hrs by Western blot analysis; format: cell-based; settings: dose 5-20 µM
PANC-1 [8] = test: Antimetastatic activity in human PANC-1 cells in nutrient-rich medium assessed as open wound area at 20 uM measured every 15 mins for 24 hrs by live cell imaging analysis (reference value: 16%); format: functional
PANC-1 [9] = test: Antimetastatic activity in human PANC-1 cells in DMEM media assessed as inhibition of colony formation at 10 uM incubated for 24 hrs followed by replacement with fresh medium and measured after 10 days by crystal violet staining-based assay relative to control; format: functional
MIA PaCa-2 [10] = test: Antimetastatic activity in human MIA PaCa-2 cells in DMEM media assessed as inhibition of colony formation at 20 uM incubated for 24 hrs followed by replacement with fresh medium and measured after 10 days by crystal violet staining-based assay relative to control; format: functional
MIA PaCa-2 [11] = test: Antitumor activity against human MIA PaCa-2 cells xenografted in athymic BALB/c-nu mouse assessed as tumor growth inhibition at 10 mg/kg/day, ip administered five times per week for 4 weeks relative to control; format: functional; settings: MIA PaCa-2, 672 h, read-out: TGI
MIA PaCa-2 [12] = test: Antitumor activity against human MIA PaCa-2 cells xenografted in athymic BALB/c-nu mouse assessed as tumor wet weight at 10 mg/kg/day, ip administered five times per week for 4 weeks (reference value: 368 mg); format: functional
MIA PaCa-2 [13] = test: Antitumor activity against human MIA PaCa-2 cells xenografted in athymic BALB/c-nu mouse assessed as reduction in p-Akt level in tumor at 2 to 10 mg/kg/day, ip administered five times per week for 4 weeks by immunohistochemistry analysis; format: functional, organism-based; settings: dose 2-10 mg/kg/day
MIA PaCa-2 [14] = test: Antitumor activity against human MIA PaCa-2 cells xenografted in athymic BALB/c-nu mouse assessed as fold change in proline level in tumor at 10 mg/kg/day, ip administered five times per week for 4 weeks by LC-MS analysis; format: functional
MIA PaCa-2 [15] = test: Preferential cytotoxicity against human MIA PaCa-2 cells in nutrient-deprived medium assessed as alteration in cell morphology by measuring leakage of cell components at 5 uM measured after 24 hrs by acridine orange and ethidium bromide dual fluorescent staining based imaging analysis; format: functional
PANC-1 [16] = test: Inhibition of Akt/mTOR signaling pathway in human PANC-1 cells in DMEM media assessed as reduction in mTOR phosphorylation at S2481 residue at 5 to 20 uM measured after 6 hrs by Western blot analysis; format: cell-based; settings: dose 5-20 µM
MIA PaCa-2 [17] = test: Antitumor activity against human MIA PaCa-2 cells xenografted in athymic BALB/c-nu mouse assessed as fold change in benzoic acid level in tumor at 10 mg/kg/day, ip administered five times per week for 4 weeks by LC-MS analysis; format: functional
MIA PaCa-2 [18] = test: Antitumor activity against human MIA PaCa-2 cells xenografted in athymic BALB/c-nu mouse assessed as fold change in cytidine diphosphate ethanolamine level in tumor at 10 mg/kg/day, ip administered five times per week for 4 weeks by LC-MS analysis; format: functional
MIA PaCa-2 [19] = test: Antitumor activity against human MIA PaCa-2 cells xenografted in athymic BALB/c-nu mouse assessed as fold change in desthiobiotin level in tumor at 10 mg/kg/day, ip administered five times per week for 4 weeks by LC-MS analysis; format: functional
MIA PaCa-2 [20] = test: Antitumor activity against human MIA PaCa-2 cells xenografted in athymic BALB/c-nu mouse assessed as fold change in hypoxanthine level in tumor at 10 mg/kg/day, ip administered five times per week for 4 weeks by LC-MS analysis; format: functional
MIA PaCa-2 [21] = test: Antitumor activity against human MIA PaCa-2 cells xenografted in athymic BALB/c-nu mouse assessed as fold change in nicotinamide level in tumor at 10 mg/kg/day, ip administered five times per week for 4 weeks by LC-MS analysis; format: functional
MIA PaCa-2 [22] = test: Antitumor activity against human MIA PaCa-2 cells xenografted in athymic BALB/c-nu mouse assessed as fold change in biotin level in tumor at 2 mg/kg/day, ip administered five times per week for 4 weeks by LC-MS analysis; format: functional
MIA PaCa-2 [23] = test: Antitumor activity against human MIA PaCa-2 cells xenografted in athymic BALB/c-nu mouse assessed as fold change in desthiobiotin level in tumor at 2 mg/kg/day, ip administered five times per week for 4 weeks by LC-MS analysis; format: functional
MIA PaCa-2 [24] = test: Antitumor activity against human MIA PaCa-2 cells xenografted in athymic BALB/c-nu mouse assessed as fold change in D-glucosamine 6-phosphate level in tumor at 2 mg/kg/day, ip administered five times per week for 4 weeks by LC-MS analysis; format: functional
MIA PaCa-2 [25] = test: Antitumor activity against human MIA PaCa-2 cells xenografted in athymic BALB/c-nu mouse assessed as fold change in hypoxanthine level in tumor at 2 mg/kg/day, ip administered five times per week for 4 weeks by LC-MS analysis; format: functional
MIA PaCa-2 [26] = test: Antitumor activity against human MIA PaCa-2 cells xenografted in athymic BALB/c-nu mouse assessed as fold change in alanine level in tumor at 2 mg/kg/day, ip administered five times per week for 4 weeks by LC-MS analysis; format: functional
MIA PaCa-2 [27] = test: Antitumor activity against human MIA PaCa-2 cells xenografted in athymic BALB/c-nu mouse assessed as fold change in proline level in tumor at 2 mg/kg/day, ip administered five times per week for 4 weeks by LC-MS analysis; format: functional
MIA PaCa-2 [28] = test: Antitumor activity against human MIA PaCa-2 cells xenografted in athymic BALB/c-nu mouse assessed as fold change in valine level in tumor at 2 mg/kg/day, ip administered five times per week for 4 weeks by LC-MS analysis; format: functional

Question: With `COc1cc(O)c(C(=O)[C@@H]2CC=C(CCC=C(C)C)C[C@H]2c2ccccc2)c(O)c1` as the molecule, how does the “fold change (FC)” value (MIA PaCa-2 [1]) read?
Answer: 0.36

Question: And the “fold change (FC)” value (MIA PaCa-2 [2])?
Answer: 0.29

Question: What about the “fold change (FC)” value (MIA PaCa-2 [3]) of the same molecule?
Answer: 0.47

Question: And the “fold change (FC)” value (MIA PaCa-2 [4])?
Answer: 0.43

Question: What about the Activity (PANC-1 [5]) of the same molecule?
Answer: Active

Question: What about the inhibition (PANC-1 [6]) of the same molecule?
Answer: Dose-Dependent Effect

Question: And the inhibition (MIA PaCa-2 [7])?
Answer: Dose-Dependent Effect

Question: What about the Activity (PANC-1 [8]) of the same molecule?
Answer: 36%

Question: And the inhibition at 10 µM (PANC-1 [9])?
Answer: 67%

Question: What about the inhibition at 20 µM (MIA PaCa-2 [10]) of the same molecule?
Answer: 95%

Question: What about the inhibition in vivo at 10 mg/kg/day (MIA PaCa-2 [11]) of the same molecule?
Answer: 68%

Question: And the Activity (MIA PaCa-2 [12])?
Answer: 119 mg

Question: What about the Activity (MIA PaCa-2 [13]) of the same molecule?
Answer: Active

Question: What about the “fold change (FC)” value (MIA PaCa-2 [14]) of the same molecule?
Answer: 0.53

Question: What about the Activity (MIA PaCa-2 [15]) of the same molecule?
Answer: Active

Question: And the inhibition (PANC-1 [16])?
Answer: inactive

Question: What about the “fold change (FC)” value (MIA PaCa-2 [17]) of the same molecule?
Answer: 0.43

Question: And the “fold change (FC)” value (MIA PaCa-2 [18])?
Answer: 0.16

Question: What about the “fold change (FC)” value (MIA PaCa-2 [19]) of the same molecule?
Answer: 0.4

Question: What about the “fold change (FC)” value (MIA PaCa-2 [20]) of the same molecule?
Answer: 0.4

Question: And the “fold change (FC)” value (MIA PaCa-2 [21])?
Answer: 0.39

Question: What about the “fold change (FC)” value (MIA PaCa-2 [22]) of the same molecule?
Answer: 0.86

Question: What about the “fold change (FC)” value (MIA PaCa-2 [23]) of the same molecule?
Answer: 0.63

Question: What about the “fold change (FC)” value (MIA PaCa-2 [24]) of the same molecule?
Answer: 0.4

Question: And the “fold change (FC)” value (MIA PaCa-2 [25])?
Answer: 0.57

Question: And the “fold change (FC)” value (MIA PaCa-2 [26])?
Answer: 0.49

Question: What about the “fold change (FC)” value (MIA PaCa-2 [27]) of the same molecule?
Answer: 0.62

Question: And the “fold change (FC)” value (MIA PaCa-2 [28])?
Answer: 0.44
